Measured values published in patent US20120129833A1, “CYCLIC KETOENOLS FOR THERAPY” (BAYER PHARMA AKTIENGESELLSCHAFT, priority 2010, published 2012).
pIC50: −log10 of the molar value.

How the values were obtained:
[1] = target: T1, recombinant human ACC1 (acetyl-CoA carboxylase 1) (Homo sapiens, UniProt Q13085); test: Human ACC1 enzyme assay (HTRF ADP detection); format: biochemical; details: 50 μM ATP, 20 μM acetyl-CoA, 15 min pre-incubation, 20 min at 22° C.; read-out: ACC 1 IC50;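 note: ADP by-product quantified by competitive HTRF immunoassay with europium cryptate anti-ADP antibody and d2-labelled ADP, read after 1 h binding at 22 °C, enzyme near 2.5 ng/µl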
T1 construct: NM_198834, amino acids 39—end; FLAG (C); made in house; host or cells: baculovirus-transfected insect cells (Hi5)
Description: The basic principle of the assay is the measurement of adenosine diphosphate (ADP), which is formed as a by-product, by means of an HTRF®-based competitive immunoassay (HTRF=Homogeneous Time Resolved Fluorescence).
The amount of complex of d2-labelled ADP and europium cryptate-labelled anti-ADP antibody was then determined by measuring the resonance energy transfer of europium cryptate to d2.

[2] = target: T2, ACC2 (acetyl-CoA carboxylase 2) (Homo sapiens, UniProt O00763); test: Human ACC2 enzyme assay (HTRF ADP detection); format: biochemical; details: 20 μM acetyl-CoA, 15 min pre-incubation, 20 min at 22° C.; read-out: ACC 2 IC50
T2 construct: catalogue no; 50201, amino acids 39—end, expressed in baculovirus-transfected Sf9 insect cells; His (C); purchased BPS Bioscience (San Diego, Calif.) 50201; host or cells: baculovirus-transfected Sf9 insect cells
T2 sequence (O00763 39-2458 limits assumed): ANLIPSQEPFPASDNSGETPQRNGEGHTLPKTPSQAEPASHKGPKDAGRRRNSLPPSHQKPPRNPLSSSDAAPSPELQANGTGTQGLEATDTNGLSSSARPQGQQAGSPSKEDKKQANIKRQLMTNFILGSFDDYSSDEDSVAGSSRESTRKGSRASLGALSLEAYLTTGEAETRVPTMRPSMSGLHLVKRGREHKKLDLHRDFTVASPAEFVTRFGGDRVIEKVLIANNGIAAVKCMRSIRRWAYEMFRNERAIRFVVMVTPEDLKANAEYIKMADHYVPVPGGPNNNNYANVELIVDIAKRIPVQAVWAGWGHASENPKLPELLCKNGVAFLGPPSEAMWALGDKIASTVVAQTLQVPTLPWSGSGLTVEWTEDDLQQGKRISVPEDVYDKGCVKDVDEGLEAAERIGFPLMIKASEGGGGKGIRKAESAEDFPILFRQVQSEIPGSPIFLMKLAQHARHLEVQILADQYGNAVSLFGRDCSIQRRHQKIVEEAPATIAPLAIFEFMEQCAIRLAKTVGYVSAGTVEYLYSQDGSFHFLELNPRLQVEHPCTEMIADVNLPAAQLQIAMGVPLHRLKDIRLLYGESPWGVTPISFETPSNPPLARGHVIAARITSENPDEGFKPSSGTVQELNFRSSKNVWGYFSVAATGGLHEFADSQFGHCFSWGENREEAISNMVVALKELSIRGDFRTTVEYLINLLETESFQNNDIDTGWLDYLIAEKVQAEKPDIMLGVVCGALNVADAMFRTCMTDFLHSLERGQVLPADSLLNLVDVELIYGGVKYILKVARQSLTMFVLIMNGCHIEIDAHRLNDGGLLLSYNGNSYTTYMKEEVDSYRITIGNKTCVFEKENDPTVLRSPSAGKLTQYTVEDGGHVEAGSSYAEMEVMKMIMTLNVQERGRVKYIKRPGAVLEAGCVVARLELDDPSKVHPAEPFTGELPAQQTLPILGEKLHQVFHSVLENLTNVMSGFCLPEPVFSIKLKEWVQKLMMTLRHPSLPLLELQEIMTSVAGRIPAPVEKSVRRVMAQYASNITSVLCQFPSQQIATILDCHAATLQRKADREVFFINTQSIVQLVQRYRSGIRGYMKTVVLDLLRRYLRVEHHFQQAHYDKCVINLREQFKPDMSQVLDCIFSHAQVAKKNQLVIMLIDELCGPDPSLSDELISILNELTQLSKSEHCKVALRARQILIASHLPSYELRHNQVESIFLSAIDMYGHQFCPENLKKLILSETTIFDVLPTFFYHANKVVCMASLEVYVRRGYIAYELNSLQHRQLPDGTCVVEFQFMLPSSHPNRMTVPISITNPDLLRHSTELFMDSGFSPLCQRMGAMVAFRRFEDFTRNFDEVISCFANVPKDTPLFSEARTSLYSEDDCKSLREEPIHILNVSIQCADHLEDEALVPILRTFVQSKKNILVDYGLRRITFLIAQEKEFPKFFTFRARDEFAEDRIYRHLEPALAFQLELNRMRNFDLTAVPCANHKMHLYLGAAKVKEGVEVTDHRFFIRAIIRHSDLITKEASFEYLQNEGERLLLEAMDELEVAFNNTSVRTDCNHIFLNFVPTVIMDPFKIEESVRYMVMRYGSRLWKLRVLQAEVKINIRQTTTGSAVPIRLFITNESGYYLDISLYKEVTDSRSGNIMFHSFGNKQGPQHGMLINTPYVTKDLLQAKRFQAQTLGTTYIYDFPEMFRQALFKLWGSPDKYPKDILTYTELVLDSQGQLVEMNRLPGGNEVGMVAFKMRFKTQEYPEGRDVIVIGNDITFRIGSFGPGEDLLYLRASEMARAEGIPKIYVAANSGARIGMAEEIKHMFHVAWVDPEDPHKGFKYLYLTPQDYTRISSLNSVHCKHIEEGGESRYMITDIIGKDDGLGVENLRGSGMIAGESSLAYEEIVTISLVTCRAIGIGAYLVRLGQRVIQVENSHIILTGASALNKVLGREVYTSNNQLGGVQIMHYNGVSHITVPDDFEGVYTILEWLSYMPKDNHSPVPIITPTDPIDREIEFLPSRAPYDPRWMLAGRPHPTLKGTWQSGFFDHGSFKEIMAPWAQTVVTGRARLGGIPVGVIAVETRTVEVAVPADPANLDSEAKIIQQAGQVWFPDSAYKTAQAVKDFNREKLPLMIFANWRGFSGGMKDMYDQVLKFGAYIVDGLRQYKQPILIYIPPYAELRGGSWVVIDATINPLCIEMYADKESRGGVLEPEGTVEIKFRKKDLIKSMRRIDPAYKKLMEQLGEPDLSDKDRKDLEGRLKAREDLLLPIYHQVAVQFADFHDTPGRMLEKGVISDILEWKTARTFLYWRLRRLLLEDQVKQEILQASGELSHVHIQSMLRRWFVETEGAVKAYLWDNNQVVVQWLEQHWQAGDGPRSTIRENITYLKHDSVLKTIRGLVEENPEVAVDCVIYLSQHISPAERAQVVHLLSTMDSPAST

pIC50 [1]	pIC50 [2]	Structure (SMILES)
6.10	5.12	Cc1ccc(-c2ccc(Cl)cc2)cc1C1=C(O)CN(C2CC2)C1=O [Example 1-18, 3-(4′-chloro-4-methylbiphenyl-3-yl)-1-cyclopropyl-4-hydroxy-1,5-dihydro-2H-pyrrol-2-one]
6.33	< 4.70	Cc1ccc(-c2ccc(Cl)cc2)cc1C1=C(O)CN(CC(C)C)C1=O [Example 1-27, 3-(4′-chloro-4-methylbiphenyl-3-yl)-4-hydroxy-1-(2-methylpropyl)-1,5-dihydro-2H-pyrrol-2-one]
6.12	< 4.70	O=C1NC2(CCOCC2)C(O)=C1c1cc(-c2ccc(F)cc2)ccc1Cl [Example 1-41, 3-(4-chloro-4′-fluorobiphenyl-3-yl)-4-hydroxy-8-oxa-1-azaspiro[4.5]dec-3-en-2-one]
5.94	< 4.70	Cc1ccc(-c2ccc(Cl)cc2)cc1C1C(=O)N2CCCCN2C1=O [Example 8-3, 2-(4′-chloro-4-methylbiphenyl-3-yl)tetrahydro-1H-pyrazolo[1,2-a]pyridazine-1,3(2H)-dione]
6.59	5.32	Cc1ccc(-c2ccc(Cl)cc2)c(C)c1C1=C(O)[C@]2(CC[C@]3(CCCO3)CC2)OC1=O [Example 2-26, (5s,8r)-3-(4′-chloro-2,4-dimethylbiphenyl-3-yl)-4-hydroxy-1,9-dioxadispiro[4.2.4.2]tetradec-3-en-2-one]
5.79	5.25	Cc1ccc(-c2ccc(Cl)cc2)cc1C1=C(O)C(C)(C)C(C)(C)NC1=O [Example 9-14, 3-(4′-chloro-4-methylbiphenyl-3-yl)-4-hydroxy-5,5,6,6-tetramethyl-5,6-dihydropyridin-2(1H)-one]
5.86	< 4.70	Cc1ccc(-c2ccc(Cl)cc2)cc1C1C(=O)N2CCOCCN2C1=O [Example 8-6, 8-(4′-chloro-4-methylbiphenyl-3-yl)tetrahydro-7H-pyrazolo[1,2-d][1,4,5]oxadiazepine-7,9(8H)-dione]
6.48	5.51	Cc1ccc(-c2ccc(Cl)cc2)cc1C1=C(O)C2(CCCC2)CC1=O [Example 6-4, 3-(4′-chloro-4-methylbiphenyl-3-yl)-4-hydroxyspiro[4.4]non-3-en-2-one]
5.68	< 4.70	Cc1ccc(-c2ccc(F)cc2F)cc1C1C(=O)N2CCOCCN2C1=O [Example 8-5, 8-(2′,4′-difluoro-4-methylbiphenyl-3-yl)tetrahydro-7H-pyrazolo[1,2-d][1,4,5]oxadiazepine-7,9(8H)-dione]
6.80	6.19	COCC1CCC2(CC1)OC(=O)C(c1c(C)ccc(-c3ccc(Cl)cc3)c1C)=C2O (centres unmarked) [Example 2-17, 3-(4′-chloro-2,4-dimethylbiphenyl-3-yl)-4-hydroxy-8-(methoxymethyl)-1-oxaspiro[4.5]dec-3-en-2-one]
5.67	6.86	Cc1cc(C)c(-c2ccc(Cl)cc2)c(C)c1C1=C(O)C2(CCCCC2)OC1=O [Example 2-6, 3-(4′-chloro-2,4,6-trimethylbiphenyl-3-yl)-4-hydroxy-1-oxaspiro[4.5]dec-3-en-2-one]
5.86	6.90	Cc1cc(C)c(-c2ccc(Cl)cc2)cc1C1=C(O)C2(CCCCC2)CC1=O [Example 6-8, 3-(4′-chloro-4,6-dimethylbiphenyl-3-yl)-4-hydroxyspiro[4.5]dec-3-en-2-one]
6.62	6.67	Cc1ccc(-c2ccc(Cl)cc2)cc1C1=C(O)C2(CCC(C)(C)CC2)NC1=O [Example 1-20, 3-(4′-chloro-4-methylbiphenyl-3-yl)-4-hydroxy-8,8-dimethyl-1-azaspiro[4.5]dec-3-en-2-one]
6.12	6.25	CCC1CCC2(CC1)CC(=O)C(c1cc(-c3ccc(Cl)cc3)ccc1C)=C2O (centres unmarked) [Example 6-5, 3-(4′-chloro-4-methylbiphenyl-3-yl)-8-ethyl-4-hydroxyspiro[4.5]dec-3-en-2-one]
5.27	< 4.70	Cc1ccc(-c2ccc(Cl)cc2)cc1C1=C(O)CC(C)(C)N(C)C1=O [Example 9-4, 3-(4′-chloro-4-methylbiphenyl-3-yl)-4-hydroxy-1,6,6-trimethyl-5,6-dihydropyridin-2(1H)-one]
5.27	< 4.70	CCc1cc(C)cc(Br)c1C1=C(O)C2(CCCCC2)OC1=O [Example C-4, reference compound]
6.09	5.04	Cc1ccc(-c2ccc(Cl)cc2)cc1C1=C(O)C(C)(C)CNC1=O [Example 9-2, 3-(4′-chloro-4-methylbiphenyl-3-yl)-4-hydroxy-5,5-dimethyl-5,6-dihydropyridin-2(1H)-one]
6.45	5.99	Cc1cc(C)c(-c2ccc(Cl)cc2)cc1C1=C(O)C2(CCSCC2)OC1=O [Example 2-42, 3-(4′-chloro-4,6-dimethylbiphenyl-3-yl)-4-hydroxy-1-oxa-8-thiaspiro[4.5]dec-3-en-2-one]
6.24	5.12	Cc1cc(C)c(-c2ccc(Cl)cc2)cc1C1=C(O)C2(CCCOC2)OC1=O (centres unmarked) [Example 2-46, 3-(4′-chloro-4,6-dimethylbiphenyl-3-yl)-4-hydroxy-1,7-dioxaspiro[4.5]dec-3-en-2-one]
6.61	5.38	CCC1CCC2(CC1)OC(=O)C(c1cc(-c3ccc(Cl)cc3)ccc1C)=C2O (centres unmarked) [Example 2-1, 3-(4′-chloro-4-methylbiphenyl-3-yl)-8-ethyl-4-hydroxy-1-oxaspiro[4.5]dec-3-en-2-one]
6.47	5.40	Cc1ccc(-c2ccc(Cl)cc2)cc1C1=C(O)C2(CCCC2)NC1=O [Example 1-85, 3-(4′-chloro-4-methylbiphenyl-3-yl)-4-hydroxy-1-azaspiro[4.4]non-3-en-2-one]
6.10	5.76	Cc1ccc(-c2ccc(Cl)cc2)cc1C1=C(O)C(C)(C(C)C)NC1=O (centres unmarked) [Example 1-78, 3-(4′-chloro-4-methylbiphenyl-3-yl)-4-hydroxy-5-methyl-5-(propan-2-yl)-1,5-dihydro-2H-pyrrol-2-one]
6.28	5.00	COCCC1CCCC2(C1)OC(=O)C(c1cc(-c3ccc(Cl)cc3)ccc1Cl)=C2O (centres unmarked) [Example 2-19, 3-(4,4′-dichlorobiphenyl-3-yl)-4-hydroxy-7-(2-methoxyethyl)-1-oxaspiro[4.5]dec-3-en-2-one]

Structure (SMILES)	pIC50 [1]	pIC50 [2]
O=C1OC2(CCC3(CCCO3)CC2)C(O)=C1c1cc(-c2ccc(Cl)cc2)ccc1Cl (centres unmarked) [Example 2-27, 3-(4,4′-dichlorobiphenyl-3-yl)-4-hydroxy-1,9-dioxadispiro[4.2.4.2]tetradec-3-en-2-one]	6.09	5.38
CO[C@H]1CC[C@]2(CC1)NC(=O)C(c1c(C)ccc(-c3ccc(F)cc3)c1C)=C2O [Example 1-45, (5s,8s)-3-(4′-fluoro-2,4-dimethylbiphenyl-3-yl)-4-hydroxy-8-methoxy-1-azaspiro[4.5]dec-3-en-2-one]	6.11	5.44
Cc1ccc(-c2ccc(Cl)cc2)cc1C1C(=O)N2C3CCC(C3)N2C1=O (centres unmarked) [Example 8-16, 2-(4′-chloro-4-methylbiphenyl-3-yl)tetrahydro-1H-5,8-methanopyrazolo[1,2-a]pyridazine-1,3(2H)-dione]	6.18	< 4.70
CCOC1CCC2(CC1)NC(=O)C(c1c(C)cc(C)c(-c3ccc(Cl)cc3)c1C)=C2O (centres unmarked) [Example 1-75, 3-(4′-chloro-2,4,6-trimethylbiphenyl-3-yl)-8-ethoxy-4-hydroxy-1-azaspiro[4.5]dec-3-en-2-one]	5.10	6.42
Cc1ccc(-c2ccc(Cl)cc2)c(C)c1C1=C(O)C2(CCCC2)OC1=O [Example 2-2, 3-(4′-chloro-2,4-dimethylbiphenyl-3-yl)-4-hydroxy-1-oxaspiro[4.4]non-3-en-2-one]	6.59	5.28
COC1CCCC2(C1)OC(=O)C(c1cc(-c3ccc(Cl)cc3)ccc1Cl)=C2O (centres unmarked) [Example 2-13, 3-(4,4′-dichlorobiphenyl-3-yl)-4-hydroxy-7-methoxy-1-oxaspiro[4.5]dec-3-en-2-one]	6.09	< 4.70
Cc1ccc(-c2ccc(Cl)cc2)c(C)c1C1=C(O)C2(CCC3(CC2)OCCO3)NC1=O [Example 1-70, 11-(4′-chloro-2,4-dimethylbiphenyl-3-yl)-12-hydroxy-1,4-dioxa-9-azadispiro[4.2.4.2]tetradec-11-en-10-one]	6.17	5.74
Cc1ccc(-c2ccc(Cl)cc2)c(C)c1C1C(=O)N2CCOCCN2C1=O [Example 8-8, 8-(4′-chloro-2,4-dimethylbiphenyl-3-yl)tetrahydro-7H-pyrazolo[1,2-d][1,4,5]oxadiazepine-7,9(8H)-dione]	6.03	4.77
Cc1ccc(-c2ccc(Cl)cc2)cc1C1=C(O)C2(CCCCC2)NC1=O [Example 1-77, 3-(4′-chloro-4-methylbiphenyl-3-yl)-4-hydroxy-1-azaspiro[4.5]dec-3-en-2-one]	6.49	6.07
COC1CCCC2(C1)NC(=O)C(c1c(C)ccc(-c3ccc(Cl)cc3)c1C)=C2O (centres unmarked) [Example 1-72, 3-(4′-chloro-2,4-dimethylbiphenyl-3-yl)-4-hydroxy-7-methoxy-1-azaspiro[4.5]dec-3-en-2-one]	5.93	5.63
Cc1ccc(-c2ccc(Cl)cc2)c(C)c1C1=C(O)C2(CCC(OCC(F)(F)F)CC2)OC1=O (centres unmarked) [Example 2-32, 3-(4′-chloro-2,4-dimethylbiphenyl-3-yl)-4-hydroxy-8-(2,2,2-trifluoroethoxy)-1-oxaspiro[4.5]dec-3-en-2-one]	6.35	5.80
